Like-named read-outs stand apart in the source and are kept apart here.

One assay deals with NC(11-55) (Human immunodeficiency virus type 1, UniProt P12493). Nature of the assay: NC inhibition assay (NC-induced cTAR DNA destabilization, fluorescence). The format is biochemical, HIV-1. As to conditions: for inhibition at 100 µM: single point screening, positive = >25% inhibition at 100µM. Put shortly: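 Doubly labelled cTAR (0.1 µM, Alexa488/Dabcyl) pre-complexed with 1 µM Zn-loaded NC(11-55) for 15 min, then compound added for a further 15 min; run at 20 °C in Tris-HCl pH 7.5, 30 mM NaCl, 0.2 mM MgCl2. Fluorescence read at ex 480/em 520 nm. IC50 taken from dose-response fit of % inhibition of NC-induced fluorescence increase.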

For assay [1], the target named is T1, full length (1-55) HIV-1 NCp7 (Human immunodeficiency virus type 1 group M subtype B, UniProt P12493).
T1 construct: recombinant full length (1-55) HIV-1 NCp7 proteins; made in house
In words: Electromobility Shift Assay (EMSA), competition for ssDNA binding. The settings on record: NCp7 300 nM, M13mp18 ssDNA; positive = >25% inhibition at 100µM. The method, boiled down: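 Recombinant NL4-3 NCp7 (300 nM in the pre-mix) was combined with compound in 20 mM Tris-HCl pH 7.4, 2 mM MgCl2, 100 mM NaCl, 1 mM DTT, then M13mp18 ssDNA was added for 25 min at 37 °C. Complexes were run on 1% agarose/0.5x TBE and stained with SybrGold. IC50 is the concentration at which bound ssDNA migrated 50% of the bound–unbound distance (triplicate).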

Assay [2] deals with HIV-1 reference strain NL4-3. In words: BiCycle assay (MT-2 then TZM-bl cells). The format is cell-based. As to conditions: for EC50: read-out: Mean EC50 (nM). Put shortly: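 MT-2 cells were infected with NL4-3 in the presence of five-fold compound dilutions. After 72 h, the supernatant was passed to TZM-bl cells. Two days later, luciferase luminescence was read and IC50 calculated, giving a readout that spans the whole replication cycle.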

Setting [3] is: Human immunodeficiency virus 1, NL43, TZM-bl, read-out: BiCycle IC50 nM.
The mark [4] stands for this setting: Human immunodeficiency virus 1, NL43, TZM-bl.
Setting [5] is: Human immunodeficiency virus 1, NL43, MT-2 cells 72 hours then TZM-bl cells two days, NL4-3, read-out: BiCycle IC50.

On NC(11-55), `Cc1cccnc1-c1nc(O)c(O)c(C(=O)N[C@H](C)C2CCCCC2)n1` [Compound 23, (R)-N-(1-cyclohexylethyl)-5,6-dihydroxy-2-(3-methylpyridin-2-yl)pyrimidine-4-carboxamide] showed an IC50 of 20.5 µM and an inhibition at 100 µM above 25%. Also, the EMSA screening results in assay [1] is “Positive (A compound showing >25% inhibition when tested at 100µM concentration is considered as "positive")”. For the same molecule, the IC50 in assay [2] (setting [3]) came to 203 nM. Also, the EC50 in assay [2] (setting [4]) is 200 nM.
As to `Cc1ccc(-c2nc(O)c(O)c(C(=O)N[C@H](C)C3CCCCC3)n2)nc1` [Compound 41, (R)-N-(1-cyclohexylethyl)-5,6-dihydroxy-2-(5-methylpyridin-2-yl)pyrimidine-4-carboxamide], the inhibition at 100 µM at NC(11-55) was above 25%. For the same molecule, in assay [1], the EMSA screening results is on record as “Positive (A compound showing >25% inhibition when tested at 100µM concentration is considered as "positive")”. For the same molecule, in assay [2] (setting [5]), the IC50 amounted to 298 nM.
Turning to `C[C@@H](NC(=O)c1nc(-c2ccc(N)cn2)nc(O)c1O)C1CCCCC1` [Compound 20, (R)-2-(5-aminopyridin-2-yl)-N-(1-cyclohexylethyl)-5,6-dihydroxypyrimidine-4-carboxamide], on NC(11-55), it took 3 µM to reach half-maximal inhibition (IC50) and the inhibition at 100 µM was above 25%. The EMSA screening results in assay [1] is “Positive (A compound showing >25% inhibition when tested at 100µM concentration is considered as "positive")”. Also, the IC50 in assay [2] (setting [3]) was 94.5 nM.
With `C[C@@H](NC(=O)c1nc(-c2cc(CCNCc3cccn3C)ccn2)nc(O)c1O)C1CCCCC1` [Compound 91, (R)-N-(1-cyclohexylethyl)-5,6-dihydroxy-2-(4-(2-(((1-methyl-1H-pyrrol-2-yl)methyl)amino)ethyl)pyridin-2-yl)pyrimidine-4-carboxamide], at NC(11-55), the IC50 came out at 12 µM and the inhibition at 100 µM was above 25%. Moreover, the EMSA screening results in assay [1] was “Positive (A compound showing >25% inhibition when tested at 100µM concentration is considered as "positive")”. Further, in assay [2] (setting [3]), the IC50 came out at 1100 nM.
With `COc1cc(-c2nc(O)c(O)c(C(=O)N[C@H](C)C3CCCCC3)n2)nc2ccccc12` [Compound 68, N-[(1R)-1-cyclohexylethyl]-2-(4-methoxyquinolin-2-yl)-5,6-bis(oxidanyl)pyrimidine-4-carboxamide], at NC(11-55), the inhibition at 100 µM was above 25%. For the same molecule, the EMSA screening results in assay [1] is given as “Positive (A compound showing >25% inhibition when tested at 100µM concentration is considered as "positive")”. Besides, in assay [2] (setting [5]), the IC50 is 240 nM.
Molecule `O=C(NCCC1CCCC1)c1nc(-c2ccccn2)nc(O)c1O` [Compound 43, N-(2-cyclopentylethyl)-5,6-dihydroxy-2-(pyridin-2-yl)pyrimidine-4-carboxamide] gave an inhibition at 100 µM against NC(11-55) above 25%. The EMSA screening results in assay [1] is recorded as “Positive (A compound showing >25% inhibition when tested at 100µM concentration is considered as "positive")”. In addition, the IC50 in assay [2] (setting [5]) is 1380 nM.
On NC(11-55), `C[C@@H](NC(=O)c1nc(-c2ccc(CN3CCCC3)cn2)nc(O)c1O)C1CCCCC1` [Compound 93, (R)-N-(1-cyclohexylethyl)-5,6-dihydroxy-2-(5-(pyrrolidin-1-ylmethyl)pyridin-2-yl)pyrimidine-4-carboxamide] displayed an IC50 of 50 µM and an inhibition at 100 µM above 25%. In assay [1], the EMSA screening results is given as “Negative”. In addition, in assay [2] (setting [3]), the IC50 was 1360 nM.
`O=C(NCC1CCCCC1)c1nc(-c2ccccn2)nc(O)c1O` [Compound 1, N-(cyclohexylmethyl)-5,6-dihydroxy-2-(pyridin-2-yl)pyrimidine-4-carboxamide]: at NC(11-55), the IC50 is 167 µM and the inhibition at 100 µM is above 25%. Besides, in assay [1], the EMSA screening results is recorded as “Positive (A compound showing >25% inhibition when tested at 100µM concentration is considered as "positive")”. Further, the IC50 in assay [2] (setting [3]) was 1210 nM.
Regarding `COc1ccnc(-c2nc(O)c(O)c(C(=O)N[C@H](C)C3CCCCC3)n2)c1` [Compound 28, (R)-N-(1-cyclohexylethyl)-5,6-dihydroxy-2-(4-methoxypyridin-2-yl)pyrimidine-4-carboxamide], on NC(11-55), the IC50 came out at 22 µM and the inhibition at 100 µM was above 25%. Also, the EMSA screening results in assay [1] was “Positive (A compound showing >25% inhibition when tested at 100µM concentration is considered as "positive")”. In addition, the IC50 in assay [2] (setting [3]) came out at 40.5 nM. Besides, the EC50 in assay [2] (setting [4]) worked out at 41 nM.
Turning to `O=C(NCCCC1CCCCC1)c1nc(-c2ccccn2)nc(O)c1O` [Compound 8, N-(3-cyclohexylpropyl)-5,6-dihydroxy-2-(pyridin-2-yl)pyrimidine-4-carboxamide], at NC(11-55), it took 27.5 µM to reach half-maximal inhibition (IC50) and the inhibition at 100 µM is above 25%. Moreover, the EMSA screening results in assay [1] was “Positive (A compound showing >25% inhibition when tested at 100µM concentration is considered as "positive")”. Besides, in assay [2] (setting [3]), the IC50 was 518 nM.
On the same counts, the results for `CC(=O)Nc1ccc(-c2nc(O)c(O)c(C(=O)N[C@H](C)C3CCCCC3)n2)nc1` [Compound 62, (R)-2-(5-acetamidopyridin-2-yl)-N-(1-cyclohexylethyl)-5,6-dihydroxypyrimidine-4-carboxamide] are 15.5 µM, above 25%, “Positive (A compound showing >25% inhibition when tested at 100µM concentration is considered as "positive")” and 252 nM.
`O=C(NC1CCCCC1)c1nc(-c2ccccn2)nc(O)c1O` [Compound 4, N-cyclohexyl-5,6-dihydroxy-2-(pyridin-2-yl)pyrimidine-4-carboxamide]: at NC(11-55), the IC50 is 320 µM and the inhibition at 100 µM was above 25%. Further, the EMSA screening results in assay [1] is “Negative”. The IC50 in assay [2] (setting [3]) was determined as 461 nM.
Regarding `Cc1cccnc1-c1nc(O)c(O)c(C(=O)NCC2CCCCC2)n1` [Compound 11, N-(cyclohexylmethyl)-5,6-dihydroxy-2-(3-methylpyridin-2-yl)pyrimidine-4-carboxamide], the values for the IC50 (at NC(11-55); in assay [2] (setting [3])) were 14.3 µM and 716 nM, respectively. In addition, the inhibition at 100 µM on NC(11-55) is above 25%. The EMSA screening results in assay [1] is on record as “Negative”.
`O=C(OCC1CCCCC1)c1nc(-c2ncccc2Cl)nc(O)c1O` [Compound 15, cyclohexylmethyl 2-(3-chloropyridin-2-yl)-5,6-dihydroxypyrimidine-4-carboxylate] gave an inhibition at 100 µM against NC(11-55) above 25%. Moreover, in assay [1], the EMSA screening results was “Positive (A compound showing >25% inhibition when tested at 100µM concentration is considered as "positive")”. The IC50 in assay [2] (setting [5]) was 9660 nM.
On NC(11-55), `Cc1ccnc(-c2nc(O)c(O)c(C(=O)N[C@@H](C)C3CCCCC3)n2)c1` [Compound 79, (S)-N-(1-cyclohexylethyl)-5,6-dihydroxy-2-(4-methylpyridin-2-yl)pyrimidine-4-carboxamide] registered an IC50 of 41 µM and an inhibition at 100 µM above 25%. Further, the EMSA screening results in assay [1] was “Positive (A compound showing >25% inhibition when tested at 100µM concentration is considered as "positive")”. Moreover, the IC50 in assay [2] (setting [3]) was 178 nM.
At NC(11-55), `C[C@@H](NC(=O)c1nc(-c2ccc(C(=O)NCc3ccccc3)cn2)nc(O)c1O)C1CCCCC1` [Compound 50, (R)-2-(5-(benzylcarbamoyl)pyridin-2-yl)-N(1-cyclohexylethyl)-5,6-dihydroxypyrimidine-4-carboxamide] gave an IC50 of 5 µM and an inhibition at 100 µM above 25%. In assay [1], the EMSA screening results was “Positive (A compound showing >25% inhibition when tested at 100µM concentration is considered as "positive")”. In addition, in assay [2] (setting [3]), the IC50 came to 348 nM.
On NC(11-55), `C[C@@H](NC(=O)c1nc(-c2ncccc2Cl)nc(O)c1O)C1CCCCC1` [Compound 33, (R)-2-(3-chloropyridin-2-yl)-N-(1-cyclohexylethyl)-5,6-dihydroxypyrimidine-4-carboxamide] came in with an IC50 of 18 µM and an inhibition at 100 µM above 25%. Moreover, the EMSA screening results in assay [1] was “Positive (A compound showing >25% inhibition when tested at 100µM concentration is considered as "positive")”. For the same molecule, in assay [2] (setting [3]), the IC50 was determined as 1220 nM.
On NC(11-55), `O=C(OCC1CCCCC1)c1nc(-c2ccccn2)nc(O)c1O` [Compound 2, cyclohexylmethyl 5,6-dihydroxy-2-(pyridin-2-yl)pyrimidine-4-carboxylate] gave an IC50 of 74 µM and an inhibition at 100 µM above 25%. Further, the EMSA screening results in assay [1] is “Negative”. Further, the IC50 in assay [2] (setting [3]) was 1780 nM.
At NC(11-55), `C[C@H](NC(=O)c1nc(-c2cc(C(F)(F)F)ccn2)nc(O)c1O)C1CCCCC1` [Compound 52, (S)-N-(1-cyclohexylethyl)-5,6-dihydroxy-2-(4-(trifluoromethyl)pyridin-2-yl)pyrimidine-4-carboxamide] showed an IC50 of 26.5 µM and an inhibition at 100 µM above 25%. Also, in assay [1], the EMSA screening results is recorded as “Positive (A compound showing >25% inhibition when tested at 100µM concentration is considered as "positive")”. In assay [2] (setting [3]), the IC50 is 433 nM.

The values are drawn from patent publication EP3290412A1, “HIV-1 NUCLEOCAPSID INHIBITORS” (Università degli Studi di Siena, priority 2016, dated 2018).
